Reference: patent US7655696B2, “Anti-tumor composition” (Ajinomoto Co., Inc., priority 1998, dated 2010)
Entries after “also recorded” stand apart in the source; their conditions may differ. Where two headings read alike, the source gives them in different places.

Legend:
[1] = test system: murine colonic tumor, colon 26; test: Antitumor Activity Test (1): complete regression of colon 26 tumor in CDF1 mice (Example 1); format: in vivo; settings: for Number of instances of complete regression of tumors: palpation on 60th day; for Complete regression (curing) of tumors in mice, in words: in combination with Cisplatin
Procedure: Antitumor effects: Complete regression of the colonic tumor was determined by palpation. Subjects in which the tumor has not been ascertained by palpation on the 60th day were deemed to have their tumors cured completely.

[2] = Solubility in water (statement)
[3] = test system: colonic tumor of mouse, colon 26; test: Antitumor Activity Tests (2) and (3): complete regression of colon 26 tumor in CDF1 mice (Example 2); format: in vivo; settings: palpation on 60th day
Procedure: (§1) Stilbene derivatives of formulas (3), (4) and (5), and Cisplatin and Carboplatin were bolusly injected into the tail vein on the 7th, 11th and 15th days as described in Tables 3 through 6 below.
Antitumor effects: Complete regression of the colonic tumor was determined by palpation. Subjects in which the tumor had not been ascertained by palpation on the 60th day were deemed to have their tumors completely cured.
(§2) The terms: [+CBDCA] and [+CDDP] indicate that 50 mg/kg/day of carboplatin or 5 mg/kg/day of cisplatin were administered, respectively. The terms: [−CBDCA] and [−CDDP] indicate that no carboplatin or cisplatin were administered. The dosages of cisplatin and carboplatin denote the maximum dosages without death due to toxicity in the administration schedule in the present embodiment.

[4] = for Rate of Body Weight Change: 21st day vs 7th day; for Body weight decrease, in words: in combination with Cisplatin
Procedure: Methodology. 10 mg of a murine colonic tumor, colon 26, was inoculated under the skin of the back of CDF1 mice (day 0). After one week, the tumor was measured to calculate the volume of the tumor and the mice were classified into several groups (each group: n=5) and administration of the stilbene derivative and Cisplatin was started. On days 7, 11 and 15, the tumor-inoculated mice were bolusly injected under the skin of their backs and into their tail veins with 1 mg of the stilbene derivative of formula (3) in 1 ml of physiological saline solution and 0.5 mg of Cisplatin (“randa Inj”) in a volume of 1 ml. Control and comparative groups of mice were similarly injected with the other drug combinations described in Table 1. The comparative drug Vindesine is an antitumor drug used in combination with Cisplatin by Garalla et al. VP-16 is also a chemotherapeutic drug which is often used clinically in combination with Cisplatin.
As indicated in Table 1 the term [−CDDP] means that Cisplatin was not administered at all. The term [+CDDP] means that Cisplatin was administered in an amount of 5 mg/kg/day. The term [n.d.] means that no testing was performed.
Safety. The rate of body weight change was used as a measure of safety as significant loss of body weight is undesirable in cancer patients. Body weight change was calculated using the following equation: Rate of body weight change (%)=[{(body weight−weight of the tumor) at the 21st day}−{(body weight−weight of the tumor) at the 7th day}]/{body weight−weight of the tumor) at the 7th day}×100.
Using the above equation, the rate of body weight change at the 21st day was calculated.

[5] = Safety Tests (2) and (3): rate of body weight change in colon 26 tumor-bearing CDF1 mice (Example 2); format: in vivo; settings: 21st day vs 7th day
Procedure: as §1, §2
Body weight change on the 21st day was calculated using the equation described in Example 1.

[6] = +CDDP (cisplatin 5 mg/kg/day), sample 5 mg/kg/day
[7] = Control, +CBDCA: carboplatin alone 50 mg/kg/day
[8] = Control, +CDDP: cisplatin alone 5 mg/kg/day

## COc1ccc(/C=C\c2cc(OC)c(OC)c(OC)c2)cc1NC(=O)C(N)CO [Compound (3), (Z)-1-(3-amino-4-methoxyphenyl)-2-(3,4,5-trimethoxyphenyl)-ethene-L-serine amide]
[1]; +CDDP (Cisplatin 5 mg/kg/day), sample 5 mg/kg/day on days 7, 11, 15
  Number of instances of complete regression of tumors: 1/5
[1]; +CDDP (Cisplatin 5 mg/kg/day), sample 10 mg/kg/day on days 7, 11, 15
  Number of instances of complete regression of tumors: 4/5
[1]; −CDDP, sample 10 mg/kg/day on days 7, 11, 15
  Number of instances of complete regression of tumors: 0/5
[2]
  Solubility in water, in words: soluble in water
[3]; +CBDCA (carboplatin 50 mg/kg/day), sample 20 mg/kg/day, tail vein, 7th, 11th, 15th days
  Number of instances of complete regression of tumors: 1/6
[3]; −CBDCA, sample 20 mg/kg/day, tail vein, 7th, 11th, 15th days
  Number of instances of complete regression of tumors: 0/6
[4]; +CDDP (Cisplatin 5 mg/kg/day), sample 10 mg/kg/day
  Rate of Body Weight Change: −1.9%
[4]; [6]
  Rate of Body Weight Change: −4.2%
[4]
  Body weight decrease, in words: did not cause significant decreases in body weight
[4]; −CDDP, sample 10 mg/kg/day, tumor weight subtracted
  Rate of Body Weight Change: −7.7%
[5]; +CBDCA (carboplatin 50 mg/kg/day), sample 20 mg/kg/day
  Rate of Body Weight Change: 1.8%
[5]; −CBDCA, sample 20 mg/kg/day
  Rate of Body Weight Change: −7.4%

## COc1cc([C@@H]2c3cc4c(cc3[C@@H](O[C@@H]3O[C@@H]5CO[C@@H](C)O[C@H]5[C@H](O)[C@H]3O)[C@H]3COC(=O)[C@H]23)OCO4)cc(OC)c1O [VP-16, reference compound]
[1]; +CDDP (Cisplatin 5 mg/kg/day), sample 30 mg/kg/day on days 7, 11, 15
  Number of instances of complete regression of tumors: 0/5
[1]
  Complete regression (curing) of tumors in mice, in words: complete tumor regression was not observed
[1]; −CDDP, sample 30 mg/kg/day on days 7, 11, 15
  Number of instances of complete regression of tumors: 0/5
[4]; +CDDP (Cisplatin 5 mg/kg/day), sample 30 mg/kg/day
  Rate of Body Weight Change: −9.9%
[4]
  Body weight decrease, in words: high rates of body weight loss
[4]; −CDDP, sample 30 mg/kg/day
  Rate of Body Weight Change: −1.0%

## [NH2][Pt]1([NH2])[O]C(=O)C2(CCC2)C(=O)[O]1 [CBDCA, diammine(1,1-cyclobutane dicarboxylate) platinum (II), reference compound]
[3]; [7]
  Number of instances of complete regression of tumors: 0/6
[5]; [7]
  Rate of Body Weight Change: −9.6%

## CC[C@]1(O)C[C@@H]2CN(CCc3c([nH]c4ccccc34)[C@@](C(=O)OC)(c3cc4c(cc3OC)N(C)[C@H]3[C@@](O)(C(N)=O)[C@H](O)[C@]5(CC)C=CCN6CC[C@]43[C@@H]65)C2)C1 [Vindesine]
[1]; +CDDP (Cisplatin 5 mg/kg/day), sample 2 mg/kg/day on days 7, 11, 15
  Number of instances of complete regression of tumors: 0/5
[1]
  Complete regression (curing) of tumors in mice, in words: complete curing of tumors in mice has not been observed; also recorded: complete tumor regression was not observed

## COc1ccc(/C=C(/C#N)c2cc(OC)c(OC)c(OC)c2)cc1N [Compound (4)]
[3]; +CDDP (cisplatin 5 mg/kg/day), sample 5 mg/kg/day, tail vein, 7th, 11th, 15th days
  Number of instances of complete regression of tumors: 4/6
[3]; −CDDP, sample 5 mg/kg/day, tail vein, 7th, 11th, 15th days
  Number of instances of complete regression of tumors: 0/6
[5]; [6]
  Rate of Body Weight Change: −13.9%
[5]; −CDDP, sample 5 mg/kg/day
  Rate of Body Weight Change: −7.0%

## COc1ccc(/C=C\c2cc(OC)c(OC)c(OC)c2)cc1N [Compound (5)]
[3]; +CDDP (cisplatin 5 mg/kg/day), sample 20 mg/kg/day, tail vein, 7th, 11th, 15th days
  Number of instances of complete regression of tumors: 6/6
[3]; −CDDP, sample 20 mg/kg/day, tail vein, 7th, 11th, 15th days
  Number of instances of complete regression of tumors: 0/6
[5]; +CDDP (cisplatin 5 mg/kg/day), sample 20 mg/kg/day
  Rate of Body Weight Change: −0.3%
[5]; −CDDP, sample 20 mg/kg/day
  Rate of Body Weight Change: −2.1%

## N.N.[Cl][Pt][Cl] [CDDP, cis-diamminedichloroplatinum (II), reference compound]
[1]; Control, +CDDP: Cisplatin alone 5 mg/kg/day on days 7, 11, 15
  Number of instances of complete regression of tumors: 0/5
[3]; [8]
  Number of instances of complete regression of tumors: 0/6
[4]; [8]
  Rate of Body Weight Change: −11.1%
[5]; [8]
  Rate of Body Weight Change: −11.4%
